Assay [1] deals with Sodium channel protein type 10 subunit alpha (Homo sapiens, UniProt Q9Y5Y9). Put plainly: In Vitro Assay (Protocol 2). On the procedure: (§1) Compounds of Formula (I), were diluted in eight concentrations in the extracellular solution composed of physiological saline, buffered with HEPES (mM): NaCl, 137; KCl, 4; CaCl2, 3.8; MgCl2, 1; HEPES, 10; Glucose, 10; pH 7.4. […], 50; CsF, 90; MgCl2, 5; EGTA, 5; HEPES, 10; pH 7.2. The duration of exposure of each compound with the cells expressing Nav 1.7 or Nav 1.8 was at least five minutes and the assays were performed at room temperature.The measurements of the sodium currents of Nav 1.8 and Nav 1.7 were obtained using the voltage protocols described below: A holding voltage of-100 mV was established followed by an inactivation voltage step at −40 mV for 8 seconds, followed by a −100 mV step for 20 ms, followed by a 20 ms step for 10 mV for Nav 1.8 or 0 mV for Nav 1.7 (TP1A) before returning to the holding voltage of-100 mV. Protocols were repeated at a frequency of 0.05 Hz and current amplitude was quantified over the TP1A phase log.
Sequence of Sodium channel protein type 10 subunit alpha (Q9Y5Y9 whole entry): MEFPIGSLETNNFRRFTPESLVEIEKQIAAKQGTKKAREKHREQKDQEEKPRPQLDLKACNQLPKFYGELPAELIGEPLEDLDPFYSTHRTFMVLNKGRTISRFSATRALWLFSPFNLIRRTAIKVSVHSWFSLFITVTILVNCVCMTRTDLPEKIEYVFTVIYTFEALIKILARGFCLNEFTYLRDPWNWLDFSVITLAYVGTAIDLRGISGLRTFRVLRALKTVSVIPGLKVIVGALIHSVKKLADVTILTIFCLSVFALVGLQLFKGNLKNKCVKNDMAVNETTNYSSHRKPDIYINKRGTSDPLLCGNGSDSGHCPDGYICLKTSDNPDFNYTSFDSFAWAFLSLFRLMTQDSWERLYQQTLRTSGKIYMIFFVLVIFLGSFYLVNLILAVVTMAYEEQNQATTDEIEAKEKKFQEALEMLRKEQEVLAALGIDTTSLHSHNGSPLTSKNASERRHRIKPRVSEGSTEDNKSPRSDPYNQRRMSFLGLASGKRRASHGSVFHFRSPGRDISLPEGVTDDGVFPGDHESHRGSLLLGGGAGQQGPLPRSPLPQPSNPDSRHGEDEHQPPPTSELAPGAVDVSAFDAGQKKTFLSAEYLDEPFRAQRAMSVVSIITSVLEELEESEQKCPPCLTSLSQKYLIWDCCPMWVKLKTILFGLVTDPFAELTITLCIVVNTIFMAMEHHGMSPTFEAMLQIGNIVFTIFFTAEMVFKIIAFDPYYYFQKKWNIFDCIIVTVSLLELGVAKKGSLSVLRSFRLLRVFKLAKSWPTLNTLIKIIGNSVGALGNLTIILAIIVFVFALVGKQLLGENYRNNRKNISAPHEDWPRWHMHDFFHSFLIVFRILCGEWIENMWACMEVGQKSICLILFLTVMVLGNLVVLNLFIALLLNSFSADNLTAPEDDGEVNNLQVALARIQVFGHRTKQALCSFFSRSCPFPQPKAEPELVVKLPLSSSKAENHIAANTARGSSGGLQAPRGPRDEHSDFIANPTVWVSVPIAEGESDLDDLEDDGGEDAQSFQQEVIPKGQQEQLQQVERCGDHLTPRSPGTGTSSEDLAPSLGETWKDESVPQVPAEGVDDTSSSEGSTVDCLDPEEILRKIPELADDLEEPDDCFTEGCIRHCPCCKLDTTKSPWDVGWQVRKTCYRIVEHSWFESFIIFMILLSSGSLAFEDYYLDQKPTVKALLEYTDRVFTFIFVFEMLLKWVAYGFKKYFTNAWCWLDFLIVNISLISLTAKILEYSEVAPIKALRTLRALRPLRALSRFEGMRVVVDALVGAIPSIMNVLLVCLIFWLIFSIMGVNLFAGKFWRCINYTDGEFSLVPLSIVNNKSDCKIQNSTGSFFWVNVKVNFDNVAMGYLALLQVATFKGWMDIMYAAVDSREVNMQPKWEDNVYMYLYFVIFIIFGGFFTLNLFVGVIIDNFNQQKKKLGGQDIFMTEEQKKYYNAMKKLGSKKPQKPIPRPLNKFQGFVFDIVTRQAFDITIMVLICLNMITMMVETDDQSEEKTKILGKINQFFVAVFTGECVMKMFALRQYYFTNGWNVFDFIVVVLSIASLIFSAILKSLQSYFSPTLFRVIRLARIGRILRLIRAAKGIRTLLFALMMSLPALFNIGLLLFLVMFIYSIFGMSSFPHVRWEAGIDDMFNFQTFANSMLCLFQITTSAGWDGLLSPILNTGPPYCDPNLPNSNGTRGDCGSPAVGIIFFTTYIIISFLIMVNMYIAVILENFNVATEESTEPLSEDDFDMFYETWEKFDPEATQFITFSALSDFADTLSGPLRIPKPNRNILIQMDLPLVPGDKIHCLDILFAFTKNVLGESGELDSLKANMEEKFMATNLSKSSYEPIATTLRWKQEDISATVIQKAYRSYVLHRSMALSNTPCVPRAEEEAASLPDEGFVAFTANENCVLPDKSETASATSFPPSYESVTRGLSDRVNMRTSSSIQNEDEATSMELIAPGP

The target in assay [2] is Sodium channel protein type 9 subunit alpha (Homo sapiens, UniProt Q15858). The experiment in a line: In Vitro Assay (Protocol 2). On the procedure:
as §1

Sequence of Sodium channel protein type 9 subunit alpha (Q15858 whole entry): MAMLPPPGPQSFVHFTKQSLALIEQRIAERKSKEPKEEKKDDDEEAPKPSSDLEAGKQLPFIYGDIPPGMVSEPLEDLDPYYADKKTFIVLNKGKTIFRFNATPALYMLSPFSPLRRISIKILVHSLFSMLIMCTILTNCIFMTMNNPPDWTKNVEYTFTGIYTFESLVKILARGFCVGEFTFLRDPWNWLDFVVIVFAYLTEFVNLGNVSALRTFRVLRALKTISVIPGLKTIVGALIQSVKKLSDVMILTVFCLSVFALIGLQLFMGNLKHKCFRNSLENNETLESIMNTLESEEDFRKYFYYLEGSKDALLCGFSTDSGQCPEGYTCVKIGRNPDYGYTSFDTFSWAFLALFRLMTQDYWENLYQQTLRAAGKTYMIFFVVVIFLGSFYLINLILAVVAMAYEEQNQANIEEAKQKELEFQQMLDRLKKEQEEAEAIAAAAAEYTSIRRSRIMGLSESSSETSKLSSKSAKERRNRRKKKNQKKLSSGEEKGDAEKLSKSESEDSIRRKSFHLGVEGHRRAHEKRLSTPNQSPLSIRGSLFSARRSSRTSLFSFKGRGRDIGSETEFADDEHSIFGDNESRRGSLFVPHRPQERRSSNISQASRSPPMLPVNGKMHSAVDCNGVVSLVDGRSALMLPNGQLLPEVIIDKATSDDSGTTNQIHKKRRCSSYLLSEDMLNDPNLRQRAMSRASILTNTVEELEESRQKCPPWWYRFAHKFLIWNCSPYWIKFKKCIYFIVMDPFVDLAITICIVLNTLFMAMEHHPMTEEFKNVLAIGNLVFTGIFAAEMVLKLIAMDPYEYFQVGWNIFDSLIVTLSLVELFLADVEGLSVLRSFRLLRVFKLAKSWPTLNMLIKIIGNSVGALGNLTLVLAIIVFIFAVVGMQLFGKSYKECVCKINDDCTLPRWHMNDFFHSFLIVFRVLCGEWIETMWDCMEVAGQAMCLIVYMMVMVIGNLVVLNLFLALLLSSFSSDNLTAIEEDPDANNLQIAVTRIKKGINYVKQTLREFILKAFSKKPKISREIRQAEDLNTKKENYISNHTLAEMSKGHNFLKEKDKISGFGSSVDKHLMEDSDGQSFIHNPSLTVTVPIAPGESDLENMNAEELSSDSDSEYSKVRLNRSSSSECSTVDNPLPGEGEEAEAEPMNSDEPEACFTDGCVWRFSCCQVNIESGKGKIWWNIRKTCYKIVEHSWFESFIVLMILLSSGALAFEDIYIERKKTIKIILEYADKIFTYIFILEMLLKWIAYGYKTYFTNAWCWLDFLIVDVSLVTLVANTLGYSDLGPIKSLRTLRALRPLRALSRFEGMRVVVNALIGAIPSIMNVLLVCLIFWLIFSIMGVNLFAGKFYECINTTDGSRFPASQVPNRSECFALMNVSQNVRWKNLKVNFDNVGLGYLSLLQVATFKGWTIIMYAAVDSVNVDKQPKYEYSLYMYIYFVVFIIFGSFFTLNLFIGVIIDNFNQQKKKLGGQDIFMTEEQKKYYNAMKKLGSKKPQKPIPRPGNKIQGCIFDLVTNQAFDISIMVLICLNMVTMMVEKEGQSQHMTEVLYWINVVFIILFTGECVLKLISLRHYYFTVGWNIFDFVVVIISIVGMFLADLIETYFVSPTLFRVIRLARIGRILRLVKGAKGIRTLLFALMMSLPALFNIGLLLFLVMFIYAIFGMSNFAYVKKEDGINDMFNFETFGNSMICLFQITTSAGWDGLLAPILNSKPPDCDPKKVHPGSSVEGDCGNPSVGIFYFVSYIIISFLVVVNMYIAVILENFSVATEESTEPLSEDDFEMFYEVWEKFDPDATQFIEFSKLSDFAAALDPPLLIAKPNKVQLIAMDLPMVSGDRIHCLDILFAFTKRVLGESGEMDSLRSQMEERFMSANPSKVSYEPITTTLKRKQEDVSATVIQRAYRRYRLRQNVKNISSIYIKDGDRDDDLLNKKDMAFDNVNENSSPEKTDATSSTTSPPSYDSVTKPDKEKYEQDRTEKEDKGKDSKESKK

For the molecule `COc1ccc(Oc2nccnc2C(=O)N/N=C/c2cc(OC)cc(OC)c2)cc1` [US20240335442, Compound 129], the IC50 (usually the concentration needed to halve the response being measured) in assay [1] is above 1000 nM; in assay [2], above 10000 nM.

As to `CCOc1ccc(-c2cncc(C(=O)N/N=C/C3=C(C)CCCCC3)n2)cc1` [US20240335442, Compound 201], the IC50 was determined as 70 nM in assay [1] and 425 nM in assay [2].

For `COc1ccc(-c2cncc(C(=O)N/N=C/c3cc(C)cc(C)c3)n2)cc1` [US20240335442, Compound 75], the half-inhibitory concentration (IC50) came to 51.2 nM in assay [1] and 464 nM in assay [2].

Regarding `COc1ccc(-c2cncc(C(=O)N/N=C/c3cc(OC)c(OC)c(OC)c3)n2)cc1` [US20240335442, Compound 81], the values for the IC50 in assay [1] and in assay [2] were above 1000 nM and above 10000 nM, respectively.

Turning to `COc1ccc(-c2cncc(C(=O)N/N=C/C3=C(C)CCCC3)n2)cc1` [US20240335442, Compound 197], the values for the 50% inhibitory concentration (IC50) in assay [1] and in assay [2] were 162 nM and 778 nM, respectively.

Take `CCOc1ccccc1/C=N/NC(=O)c1cncc(-c2ccc(OC)cc2)n1` [US20240335442, Compound 43]: the figures for the IC50 in assay [1] and in assay [2] were 188 nM and 3920 nM, respectively.

Turning to `COc1ccc(-c2cncc(C(=O)N/N=C/c3cc(F)cc(F)c3)n2)cc1` [US20240335442, Compound 70], the IC50 in assay [1] came out at 973 nM; in assay [2], 10000 nM.

Take `CCOc1ccc(-c2nc(C(=O)N/N=C/c3cc(OC)cc(OC)c3)cnc2OC)cc1` [US20240335442, Compound 211]: the IC50 was above 1000 nM in assay [1] and above 10000 nM in assay [2].

Regarding `CCOc1ccc(-c2cncc(C(=O)N/N=C/C3=C(C)CCCC3)n2)cc1` [US20240335442, Compound 198], the IC50 in assay [1] was found to be 24 nM; in assay [2], 367 nM.

As for `CCOc1ccc(-c2cncc(C(=O)N/N=C/c3cc(OC)cc(C(C)O)c3)n2)cc1` (centres undefined) [US20240335442, Compound 215], the IC50 worked out at 116 nM in assay [1] and 1910 nM in assay [2].

In the case of `CCCOc1cc(/C=N/NC(=O)c2cncc(-c3ccc(OC)cc3)n2)cc(OCCC)c1` [US20240335442, Compound 68], the figures for the IC50 in assay [1] and in assay [2] were 289 nM and 1830 nM, respectively.

As for `CCCOc1ccccc1/C=N/NC(=O)c1cncc(-c2ccc(OC)cc2)n1` [US20240335442, Compound 44], the figures for the IC50 in assay [1] and in assay [2] were 163 nM and 3620 nM, respectively.

As to `COc1ccc(-c2cncc(C(=O)N/N=C/c3cc(OC)cc(OC)c3OC)n2)cc1` [US20240335442, Compound 80], the results for the IC50 in assay [1] and in assay [2] were 352 nM and 1490 nM, respectively.

Consider `CC(C)Oc1ccc(-c2cncc(C(=O)N/N=C/C3CCC(F)(F)CC3)n2)cc1` [US20240335442, Compound 176], for which the IC50 turned out to be 456 nM in assay [1] and 400 nM in assay [2].

On to `CCOc1ccc(-c2nc(C(=O)N/N=C/c3cc(OC)cc(OC)c3)cnc2CC)cc1` [US20240335442, Compound 208], for which the figures for the half-maximal inhibitory concentration (IC50) in assay [1] and in assay [2] were 431 nM and 1890 nM, respectively.

As to `COc1ccc(-c2cncc(C(=O)N/N=C/c3cc(OC(C)C)cc(OC(C)C)c3)n2)cc1` [US20240335442, Compound 69], the results for the IC50 in assay [1] and in assay [2] were 517 nM and 1430 nM, respectively.

For `CCOc1ccc(-c2nc(C(=O)N/N=C/c3cc(OC)cc(OC)c3)cnc2C)cc1` [US20240335442, Compound 207], the IC50 in assay [1] was 472 nM; in assay [2] it was above 10000 nM.
